From patent US20050054696A1, “Indole compounds and medicinal use thereof” (priority 2001, published 2005) come the findings set out here.

As a reminder, the IC50 is the concentration needed to halve the response being measured.

The assay concerns the target T1, recombinant human liver glycogen phosphorylase (HLGPa) (Homo sapiens, UniProt P06737).
T1 construct: made in house; host or cells: Sf9 insect cells (unpurified cell lysate used as enzyme solution)
T1 sequence (P06737 1-847): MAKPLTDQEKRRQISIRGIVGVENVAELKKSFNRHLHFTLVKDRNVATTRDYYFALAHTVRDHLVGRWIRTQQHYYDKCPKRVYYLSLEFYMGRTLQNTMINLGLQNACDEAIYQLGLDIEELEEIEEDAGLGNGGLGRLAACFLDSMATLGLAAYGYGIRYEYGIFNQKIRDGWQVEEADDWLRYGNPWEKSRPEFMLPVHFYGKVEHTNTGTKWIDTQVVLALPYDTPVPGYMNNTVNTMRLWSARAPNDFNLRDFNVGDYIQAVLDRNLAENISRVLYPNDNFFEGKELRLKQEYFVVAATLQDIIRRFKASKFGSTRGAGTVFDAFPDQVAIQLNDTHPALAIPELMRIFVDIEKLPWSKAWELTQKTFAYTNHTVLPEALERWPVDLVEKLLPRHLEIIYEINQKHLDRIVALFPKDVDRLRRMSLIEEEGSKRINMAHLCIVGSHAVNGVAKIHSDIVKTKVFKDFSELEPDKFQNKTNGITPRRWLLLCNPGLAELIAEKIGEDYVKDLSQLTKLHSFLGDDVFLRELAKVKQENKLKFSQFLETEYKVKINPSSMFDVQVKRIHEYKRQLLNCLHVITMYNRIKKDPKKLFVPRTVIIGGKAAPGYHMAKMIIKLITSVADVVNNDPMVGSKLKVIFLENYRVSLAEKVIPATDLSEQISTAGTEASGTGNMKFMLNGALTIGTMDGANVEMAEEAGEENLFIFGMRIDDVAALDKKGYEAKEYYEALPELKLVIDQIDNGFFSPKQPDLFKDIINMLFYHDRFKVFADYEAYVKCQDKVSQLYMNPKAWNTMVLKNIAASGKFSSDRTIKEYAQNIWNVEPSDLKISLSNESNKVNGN
Description: Measurement of liver glycogen phosphorylase activity (enzyme inhibitory activity against HLGPa). To be noted: Sf9 cell lysate expressing recombinant enzyme; reverse reaction (glycogen synthesis from G1-P), phosphate by malachite green, 60 min room temperature. It is filed as biochemical. On the procedure:
Measurement Method of Liver Glycogen Phosphorylase Activity
The measurement of the glycogen phosphorylase activity was performed by measuring the concentration of phosphoric acic produced by a reverse reaction, that is, a reaction wherein the glycogen phosphorylase synthesizes glycogen from G1-P. A cell lysate of Sf9 cells that forcibly expressed recombinant human liver glycogen phosphorylase was diluted to a protein amount of 80 μg/mL with 1 mM imidazole-hydrochloric acid buffer (pH 7.0, containing 0.2 mM PMSF, 250 mM NaCl, 0.025% BSA) and the dilute cell lysate was used as an enzyme solution of human liver glycogen phosphorylase. As a substrate solution, 25 mM Tris-HCl buffer (pH 7.2, containing 250 mM KCl, 6.25 mM MgCl2, 6.25 mM EGTA, 1.25 mM glucose-1-phosphate, 2.5 mg/ml glycogen, 7.5 mM glucose) was used. The test drug was dissolved in 0.5% dimethyl sulfoxide (DMSO). To a mixture of the test drug (10 μl) and the substrate solution (20 μl) was added an enzyme solution (20 μl) to start the enzyme reaction. As a control, 0.5% DMSO was added instead of the test drug. One free of addition of enzyme was used as a blank. The mixture was reacted at room temperature for 60 min, and a malachite green solution (50 μl) was added. The mixture was further reacted at room temperature for 20 min and absorbance at 650 nm was measured. An enzyme solution was added to the blank simultaneously with the malachite green solution and the measurement was done in the same manner. The percent inhibition (%) of the test drug was calculated from ((value of control−value of the test drug)/(value of control−value of blank))×100 (%).

Some results are limits rather than exact numbers.

As for `O=C(Nn1c(=O)[nH]c2ccccc2c1=O)c1cc2ccc(Cl)cc2[nH]1` [Example 2-12, 6-chloro-1H-indole-2-carboxylic acid (1,2,3,4-tetrahydro-2,4-dioxoquinazolin-3-yl)amide], the IC50 amounted to 440 nM.

With `COc1ccccc1C(=O)NNC(=O)c1cc2cc(Cl)ccc2[nH]1` [Example 1-15, 2-methoxybenzoic acid 2-(5-chloro-1H-indole-2-carbonyl)hydrazide], the IC50 is 120 nM.

For `O=C(NNC(=O)c1cc2cc([N+](=O)[O-])ccc2[nH]1)c1ccccc1` [Example 1-122, benzoic acid 2-(5-nitro-1H-indole-2-carbonyl)hydrazide], the IC50 is above 100 nM.

As for `O=C(O)COc1cccc(C(=O)NNC(=O)c2cc3cc(Cl)ccc3[nH]2)c1` [Example 1-70, 2-(3-(2-(5-chloro-1H-indole-2-carbonyl)hydrazinocarbonyl)phenoxy)acetic acid], the IC50 was 150 nM.

With `Cc1cccc(C(=O)NNC(=O)c2cc3cc(Cl)ccc3[nH]2)c1N` [Example 1-99, 2-amino-3-methylbenzoic acid 2-(5-chloro-1H-indole-2-carbonyl)hydrazide], the IC50 amounted to 10 nM.

In the case of `O=C(NN1C(=O)CCN(c2ccccn2)C1=O)c1cc2cc(Cl)ccc2[nH]1` [Example 3-6, 5-chloro-1H-indole-2-carboxylic acid (2,4-dioxo-1-(pyridin-2-yl)perhydropyrimidin-3-yl)amide], the IC50 turned out to be 190 nM.

As to `O=C(NNC(=O)c1cc2cc(Cl)ccc2[nH]1)c1ccsc1` [Example 1-83, thiophene-3-carboxylic acid 2-(5-chloro-1H-indole-2-carbonyl)hydrazide], the IC50 worked out at 880 nM.

As for `O=C(NNC(=O)c1cccc2ccccc12)c1cc2cc(Cl)ccc2[nH]1` [Example 1-92, 5-chloro-1H-indole-2-carboxylic acid 2-(naphthalene-1-carbonyl)hydrazide], the IC50 was found to be 71 nM.

As to `O=C(NNC(=O)c1cc2cc(Cl)ccc2[nH]1)c1cnccn1` [Example 1-82, pyrazine-2-carboxylic acid 2-(5-chloro-1H-indole-2-carbonyl)hydrazide], the IC50 came out at 360 nM.

On to `N=C(NNC(=O)c1cc2cc(Cl)ccc2[nH]1)c1c(F)cccc1F` [Example 6-25, 5-chloro-1H-indole-2-carboxylic acid 2-((2,6-difluorophenyl)-imino-methyl)hydrazide methanesulfonate], for which the IC50 worked out at 330 nM.

`Cc1ccc(C(=O)NNC(=O)c2cc3cc(Cl)ccc3[nH]2)c(N)c1` [Example 1-95, 2-amino-4-methylbenzoic acid 2-(5-chloro-1H-indole-2-carbonyl)hydrazide]: the concentration for half-maximal inhibition (IC50) stood at 280 nM.

As to `O=C(O)COc1ccccc1C(=O)NNC(=O)c1cc2cc(Cl)ccc2[nH]1` [Example 1-50, 2-(2-(2-(5-chloro-1H-indole-2-carbonyl)hydrazinocarbonyl)phenoxy)acetic acid], the IC50 stood at 27 nM.

With `Nc1cnccc1C(=O)NNC(=O)c1cc2cc(Cl)ccc2[nH]1` [Example 1-41, 3-aminoisonicotinic acid 2-(5-chloro-1H-indole-2-carbonyl)hydrazide], the IC50 turned out to be 310 nM.

As to `Cc1ccsc1C(=O)NNC(=O)c1cc2cc(Cl)ccc2[nH]1` [Example 1-89, 3-methylthiophene-2-carboxylic acid 2-(5-chloro-1H-indole-2-carbonyl)hydrazide], the half-maximal inhibitory concentration (IC50) was 450 nM.

For `Nc1ccc2[nH]c(=O)n(NC(=O)c3cc4cc(Cl)ccc4[nH]3)c(=O)c2c1` [Example 2-16, 5-chloro-1H-indole-2-carboxylic acid (6-amino-1,2,3,4-tetrahydro-2,4-dioxoquinazolin-3-yl)amide], the IC50 turned out to be 110 nM.

On to `O=C(NN1C(=O)CN(c2ccccc2)C1=O)c1cc2cc(Cl)ccc2[nH]1` [Example 4-2, N-(2,4-dioxo-1-phenylimidazolidin-3-yl)-5-chloro-1H-indole-2-carboxamide], for which the half-maximal inhibitory concentration (IC50) amounted to 23 nM.

`O=C(NNC(=O)c1cc2ccc(Cl)cc2[nH]1)c1ccccc1` [Example 1-124, benzoic acid 2-(6-chloro-1H-indole-2-carbonyl)hydrazide]: the IC50 is above 100 nM.

Turning to `O=C(NNC(=O)c1cc2cc(Cl)ccc2[nH]1)c1cccc(-c2nnn[nH]2)c1` [Example 1-60, 3-(1H-tetrazol-5-yl)benzoic acid 2-(5-chloro-1H-indole-2-carbonyl)hydrazide], the half-maximal inhibitory concentration (IC50) was above 100 nM.

In the case of `O=C(NNC(=O)c1ccco1)c1cc2cc(Cl)ccc2[nH]1` [Example 1-78, furan-2-carboxylic acid 2-(5-chloro-1H-indole-2-carbonyl)hydrazide], the IC50 turned out to be 18 nM.

On to `Cc1ccc2[nH]c(C(=O)NNC(=O)c3ccccc3N)cc2c1` [Example 1-62, 2-aminobenzoic acid 2-(5-methyl-1H-indole-2-carbonyl)hydrazide], for which the IC50 was 88 nM.

For `Cc1ccc2[nH]c(C(=O)NNC(=O)c3cccn3C)cc2c1` [Example 1-106, 1-methyl-1H-pyrrole-2-carboxylic acid 2-(5-methyl-1H-indole-2-carbonyl)hydrazide], the IC50 stood at 78 nM.

Regarding `Cc1ccc(C(=N)NNC(=O)c2cc3cc(Cl)ccc3[nH]2)n1C` [Example 6-27, 5-chloro-1H-indole-2-carboxylic acid 2-((1,2-dimethyl-1H-pyrrol-5-yl)-imino-methyl)hydrazide methanesulfonate], the IC50 was found to be 170 nM.

On to `Cc1ccc2[nH]c(C(=O)NN3C(=O)CCN(c4ccccc4)C3=O)cc2c1` [Example 3-10, 5-methyl-1H-indole-2-carboxylic acid (2,4-dioxo-1-phenyl-perhydropyrimidin-3-yl)amide], for which the IC50 was determined as 440 nM.

With `N=C(NNC(=O)c1cc2cc(Cl)ccc2[nH]1)c1ccccc1C(F)(F)F` [Example 1-139, 5-chloro-1H-indole-2-carboxylic acid 2-(imino-(2-trifluoromethylphenyl)-methyl)hydrazide], the IC50 turned out to be 380 nM.

On to `O=C(NNC(=O)c1ccccc1C(F)(F)F)c1cc2cc(Cl)ccc2[nH]1` [Example 1-32, 2-trifluoromethylbenzoic acid 2-(5-chloro-1H-indole-2-carbonyl)hydrazide], for which the IC50 stood at 350 nM.

Regarding `O=C(NNC(=O)c1cc2cc(Cl)ccc2[nH]1)c1ccccc1` [Example 1, benzoic acid 2-(5-chloro-1H-indole-2-carbonyl)hydrazide], the IC50 came to 38 nM.

In the case of `Cn1cccc1C(=O)NNC(=O)c1cc2cc(Cl)ccc2[nH]1` [Example 1-87, 1-methyl-1H-pyrrole-2-carboxylic acid 2-(5-chloro-1H-indole-2-carbonyl)hydrazide], the IC50 stood at 56 nM.

Turning to `O=C(NN1C(=O)NC(c2ccccc2F)C1=O)c1cc2cc(Cl)ccc2[nH]1` (stereo not shown) [Example 4-14, 5-chloro-1H-indole-2-carboxylic acid (2,5-dioxo-4-(2-fluorophenyl)imidazolidin-1-yl)amide], the IC50 came out at 110 nM.

On to `O=C(NNC(=O)c1cc2cc(Cl)ccc2[nH]1)c1ccc(F)cc1` [Example 1-29, 4-fluorobenzoic acid 2-(5-chloro-1H-indole-2-carbonyl)hydrazide], for which the IC50 was 15 nM.

On to `COC(=O)COc1ccccc1C(=O)NNC(=O)c1cc2cc(Cl)ccc2[nH]1` [Example 1-49, 2-(2-(2-(5-chloro-1H-indole-2-carbonyl)hydrazinocarbonyl)phenoxy)acetic acid methyl ester], for which the IC50 was found to be 150 nM.

In the case of `O=C(NNC(=O)c1ccccc1-c1ccccc1)c1cc2cc(Cl)ccc2[nH]1` [Example 1-27, biphenyl-2-carboxylic acid 2-(5-chloro-1H-indole-2-carbonyl)hydrazide], the IC50 came to 47 nM.
